Reference: US8106092B2, “Treatment of solid cancers” (priority 2004, dated 2012)

Key:
[1] = tested on: B16 tumors; experiment: PEP005-mediated cure of primaries plus DC therapy, growth of secondary tumors, B16 model; assay type: in vivo, C57BL/6 mice; conditions: DC p=0.009
Procedure: FIGS. 13A to C are graphical representations showing synergistic effects between PEP005-mediated cure of primaries and DC therapy on the growth of secondary tumors and on CD8^+ T-cell induction. (A) On d−3 C57BL/6 mice where inoculated with 2×10^6 B16-OVA cells on the right flank (primary tumor) and 2×10^4 B16-OVA cells on the left flank (secondary tumor). On d0 and d1 the primary B16-OVA tumors, which has reach 30.4 mm^2+SD6 were cured with i.t. injections of 25 μg of PEP005 formulated in PEG400. On d4 and d11 mice received DC therapy using DC2.4 cells pulsed with SVYDFFVWL [SEQ ID NO:1], KVPRNQDWL [SEQ ID NO:4] and SIINFEKL [SEQ ID NO:2] peptides, and ovalbumin (n=12, PEP005+DC). […] A third group was inoculated with secondary tumors only and received the DC therapy (n=14, DC), and the control group was given only secondary tumors and received no treatment (n=18, Control). Animals were culled when the secondary tumors reached 100 mm^2. (B) The experiment in (A) was repeated in the B16 model (n=6 per group). On d−2 C57BL/6 mice were inoculated with 10^6 B16 cells on the right flank (primary tumor) and 5×10^4 cells on the left flank (secondary tumors). […] Animal groups were established and treated as in (A) except that on d12 mice were sacrificed and splenocytes analyzed in an ex vivo ELISPOT assay for responses to SVYDFFVWL [SEQ ID NO:1], KVPRNQDWL [SEQ ID NO:4] and SIINFEKL [SEQ ID NO:2] […]

[2] = tested on: Lewis lung-OVA tumors; experiment: PEP005-mediated cure of primary Lewis lung-OVA tumors, challenge with secondary Lewis lung-OVA; assay type: in vivo, C57BL/6 mice
Procedure: FIGS. 4A to D are graphical representations showing protection against secondary tumors following cure of primary tumors with PEP005. (A) C57BL/6 mice received 5×10^5 Lewis lung-OVA s.c. on the back on day less 7 (d−7). When these primary tumors had reached an average 13.6 mm^2±1.8 SE (range 10-25 mm^2) on d0 they were treated once with 16 μg of PEP005 delivered i.t. In eight mice these primary tumors were cured, and these mice received 5×10^5 Lewis lung-OVA s.c. on d4 on the opposite flank from the primary tumors. The emergence of these secondary tumors was monitored over time (PEP005 cured). In a parallel group of animals (n=5) PEP005 treatment regressed the primary tumors, but after 11-13 days the primary tumors re-emerged. These animals also received secondary tumors as above and their emergence was again monitored over time (PEP005 regressed). Two control groups were included. One group (n=6) received no primary tumors, but was treated s.c. with PEP005 and received secondary tumors on the opposite flank (white triangles, PEP005 s.c.). The second control group (n=8) also received no primary tumors, was not treated with PEP005, and received secondary tumors as above (Controls). […] The experiment in (A) was repeated in Foxnl^nu mice; PEP005 cured (n=4), PEP005 regressed (n=7), Control (n=7). A PEP005 s.c. group was not included. (C) Treatment of primary Lewis lung-OVA with PEP005 induced SIINFEKL-specific CD8^+ T-cell responses using IFNγ ELISPOT when the secondary tumors had emerged or on d50. (D) Reduced growth of B16-OVA lung metastases following successful treatment of s.c. B16-OVA tumors with PEP005. C57BL/6 mice received 5×10^5 B16-OVA s.c. on the back on d−6. When these primary tumors had reached 10-20 mm^2 on d0, they were treated once with 18 μg of PEP005 delivered i.t., which cured the tumors in eight mice (PEP005 cured) and regressed the tumors in five mice (PEP005 regressed). Controls as above. Secondary B16-OVA (10^5) were injected i.v. on d6 and animals were sacrificed on d27 and lung metastases counted.
B16 and B16 cells stably expressing ovalbumin (B16-OVA)were grown s.c. in C57BL/6 mice as described previously (Ogbourne et al, Cancer Res 64:2833-2839, 2004; Anraku et al, J Virol 76:3791-3799, 2002). Lung metastases were established as described (Zeh et al, J Immunol 162:989-994, 1999). Lewis lung-OVA (Nelson et al, J Immunol 166:5557-5566, 2001) were grown s.c. in C57BL/6 as described (Lenarczyk et al, Vaccine 22:963-974, 2004).
Tumors were treated by topical or intratumoral (i.t.) injection (using a 26 gauge needle) of (i) PEP0005 dissolved in acetone and then RPMI 1640 (final concentration of acetone 4%), or (ii) PEP005 formulated in PEG400. […]

[3] = tested on: Lewis lung-OVA tumors; experiment: Lewis lung-OVA primary cure and secondary challenge repeated in Foxnl^nu mice; assay type: in vivo; conditions: PEP005-mediated cure of primary tumors

C/C=C(/C)C(=O)O[C@H]1C(C)=C[C@]23C(=O)[C@@H](C=C(CO)[C@@H](O)[C@]12O)[C@H]1[C@@H](C[C@H]3C)C1(C)C [PEP005, ingenol-3-angelate]
growth of secondaries vs no treatment controls [1]: did not provide a significant delay of tumor growth
growth of secondary tumors ([2]; PEP005 regressed but failed to cure the primary tumors (n=5), not significant): slightly delayed
growth of secondary tumors ([2]; no primary tumors, PEP005 s.c. at a site distant from the secondary tumors): failed to reduce the growth of the secondary tumors
animals in which secondary tumors failed to appear ([2]; primary tumor cured by i.t. PEP005 (n=8), secondary inoculated d4 on opposite flank): 50%
emergence of secondary tumors ([2]; primary tumor cured by i.t. PEP005 (n=8), log rank p=0.002): significantly delayed
protection against secondary challenge [3]: no protective effect
